Patent publication US7632816B2, “Treatment of Alzheimer amyloid deposition” (New York University, priority 2003, dated 2009)
Square brackets hold non-standard residues; d marks the D form. Peptide text beside a SMILES is read from it.

Assays:
[1] = format: physicochemical
Text: Circular dichroism (“CD”) was used to study the secondary structure of peptides in solution as described previously (Golabek et al., “The Interaction Between Apolipoprotein E and Alzheimer's Amyloid β-peptide is Dependent on β-peptide Conformation,” J. Biol. Chem. 271:10602-10606 (1996); Soto et al., “Alzheimer's Soluble β-amyloid is Conformationally Modified by Apolipoproteins in vitro,” Neuroreport 7:721-725 (1996); which are hereby incorporated by reference in their entirety). Aliquots of HFIP treated peptides were diluted in 5 mmol/L Tris buffer (pH 7.0) to obtain a peptide concentration of 100 μmol/L, and were incubated at 37° C. CD was measured at indicated intervals with t=0 being immediately after the peptide was reconstituted. Measurements were on a Jasco J-720 spectropolarimeter (Easton, Md.), equipped with a model CTC-344 circular temperature control system (Neslab Inc., Newington, N.H.), at final protein concentration of 0.15 mg/ml in a cell with 0.1 cm path length. The spectra were recorded at 1 nm intervals over the wavelength range of 190-260 nm at 15° C. Results were expressed as molar ellipticity in units of deg-cm^2-dmol^−1, and the data were analyzed by the Lincomb, convex constraints and neural network algorithms to obtain percentages of different types of secondary structures using Softsec software (Softwood Inc., PA.) (Perczel et al., “Analysis of Circular Dichroism Spectrum of Proteins Using the Convex Constraint Algorithm,” Anal. Biochem. 203:83-93 (1992); Manavalan et al., “Variable Selection Method Improves the Prediction of Protein Secondary Structure from Circular Dichroism,” Anal. Biochem. 167:76-85 (1987); Toumadje et al., “Extending CD Spectra of Proteins to 168nm Improves the Analysis for Secondary Structures,” Anal. Biochem. 200:321-331 (1992); Sreerma et al., “A Self-consistent Method for the Analysis of Protein Secondary Structure from Circular Dichroism,” Anal. Biochem. 209:32-44 (1993); which are hereby incorporated by reference in their entirety). […]

Aβ1-42 = target: T1, Aβ1-42 (Homo sapiens, UniProt P05067); assay: Thioflavin-T assay: peptide alone added to Aβ1-42 (no apoE); format: biochemical; conditions: same concentration of Aβ12-28P
T1 construct: made in house; host or cells: chemical peptide synthesis
T1 sequence (P05067 672-713): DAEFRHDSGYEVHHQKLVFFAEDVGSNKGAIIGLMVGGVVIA

[2] = CD immediately after reconstitution, 5 mmol/L Tris pH 7.0

SMILES: CC(=O)N[C@@H](C(=O)N[C@H](Cc1c[nH]cn1)C(=O)N[C@H](Cc1c[nH]cn1)C(=O)N[C@H](CCC(N)=O)C(=O)N[C@H](CCCCN)C(=O)N[C@H](CC(C)C)C(=O)N1CCC[C@@H]1C(=O)N[C@H](Cc1ccccc1)C(=O)N[C@H](Cc1ccccc1)C(=O)N[C@H](C)C(=O)N[C@H](CCC(=O)O)C(=O)N[C@H](CC(=O)O)C(=O)N[C@@H](C(=O)NCC(=O)N[C@H](CO)C(=O)N[C@H](CC(N)=O)C(=O)N[C@H](CCCCN)C(N)=O)C(C)C)C(C)C [Aβ12-28P] (Ac-[dV][dH][dH][dQ][dK][dL][dP][dF][dF][dA][dE][dD][dV]G[dS][dN][dK]-NH2)
- β-sheet content ([1]; CD at time=0): 2%
- random coil, share of the total protein structure [1, 2]: 59%
- ∝-helix, share of the total protein structure [1, 2]: 39%
- effect of peptide alone on Aβ1-42 fibrillogenesis (Aβ1-42): did not have any significant effect
